`COc1ccc(N2CCN(CCC3CN(C)C(=O)O3)CC2)cc1` (stereo unspecified) gave a melting point of 103 to 104 °C.
`O=[N+]([O-])c1ccc(I)c(-c2cc([N+](=O)[O-])ccc2I)c1` showed a melting point of 230 to 232 °C.
In the case of `Cn1c2ccc([N+](=O)[O-])cc2c2cc(C(=O)N3CCOCC3)sc21`, the melting point was 250 to 252 °C.
With `O=C(c1ccc(C2=CCCCC2)cc1)N1Cc2cccn2Cc2ccccc21` the melting point was 66 °C.
Molecule `Cc1nn(-c2cc(OC(C)C(=O)NS(C)(=O)=O)c(Cl)cc2Cl)c(=O)n1C(F)F` (stereo unspecified) has a melting point of 185 to 188 °C.
For `CP(C)(=O)c1ccc(C(=O)O)cc1`, the melting point was 101 °C.
`COc1ccc(OC)c(-c2nnc3ccc(Cl)nn23)c1` showed a melting point of 111 to 112 °C.
Work on `CNN(NC)C(=O)Sc1cccnc1C(=O)OC` yielded a melting point of 56 to 58 °C.
Molecule `FC(F)(F)C(F)(F)Oc1ccc(-c2nnco2)cc1` has a melting point of 87 to 89 °C.
For `COc1cc(O)nc2cc(-c3cc(C)c(O)c(C)c3)[nH]c(=O)c12`, the melting point was greater than 330 °C.
Work on `CCCCn1cc(/C=C(\Cc2cc3c(cc2OC)OCO3)C(=O)O)c(-c2ccc(OC)cc2OCc2ccccc2C(=O)O)n1` yielded a melting point of 226 to 227 °C.
With `Cc1cccc(-c2nc(C3CCN(C)CC3)sc2-c2ccnc(NC(=O)c3ccccc3)c2)c1` the melting point was 151 to 152 °C.
In the case of `COC(=O)c1ccccc1-c1ncc(-c2cccc(C(F)(F)F)c2)o1`, the melting point was 92.5 to 94 °C.
`Fc1cc2ccc(CBr)nc2cc1F` gave a melting point of 113 to 115 °C.
Work on `CC(=S)NCC1CN(c2ccc(N3CCC(=CC#N)C(F)C3)c(F)c2)C(=O)O1` (stereo unspecified) yielded a melting point of 137 to 138 °C.
For `O=C(CC(C(=O)c1ccccc1)C(O)=S)c1ccccc1` (stereo unspecified), the melting point was 142 to 144 °C.
`O=C(OCc1ccccc1)c1cc(C(=O)OCc2ccccc2)n(CCBr)n1` gave a melting point of 112 °C.
`O=S(Sc1ccccc1)c1ccccc1` (stereo unspecified) showed a melting point of 69 to 70 °C.
Work on `CCCC=Cc1c(C(C)C)nc(C(C)C)c(CO)c1-c1ccc(F)c(F)c1` yielded a melting point of 105 to 106 °C.
`CCCONC(=O)c1c(Cl)ccc(C(=O)OC)c1Cl` showed a melting point of 80 to 81 °C.
For `CCN(CC)C(=O)n1ccc(S(=O)(=O)c2c(F)cccc2F)n1`, the melting point was 83 to 83.5 °C.
Molecule `CC(=O)C(=[N+]=[N-])C(=O)CCCCCCCCCc1ccc(S(=O)(=O)Cl)cc1` has a melting point of 48.5 to 50 °C.
`Cc1cccc(NC(=O)NCCC(=O)N(c2ccccc2)c2ccccc2)c1` showed a melting point of 179 °C.
Molecule `NCC(=O)N(C(=O)C(O)c1ccccc1)c1ccccc1` (stereo unspecified) has a melting point of 148 to 151 °C.
`CCCCc1oc2ccccc2c1C(=O)Nc1ccc2c(Br)c(O)ccc2c1` gave a melting point of 195 to 197 °C.
`N#CC(c1ccc(Cl)cc1)N(Cc1ccccc1)C(=O)C(F)(F)F` (stereo unspecified) showed a melting point of 131 to 132 °C.
Molecule `O=C(Nc1cccc(Br)c1)NC1C(=O)N(CC23CC4CC(CC(C4)C2)C3)c2ccccc2N(c2ccccc2)C1=O` (stereo unspecified) has a melting point of 254 °C.
With `COC1=C(Br)CO/C1=C\c1cccc2ccccc12` the melting point was 143 to 148 °C.
`C#Cc1ccc2c(c1)C(c1ccccn1)=NC(C)c1c(C(=O)OCC)ncn1-2` (stereo unspecified) gave a melting point of 235 to 237 °C.
Molecule `Nc1ccc(Nc2c(NCc3ccco3)cc(C(=O)O)cc2S(=O)(=O)Nc2ccccc2N)cc1` has a melting point of 182 °C.
Molecule `CCOC(=O)c1c[nH]c(Br)c1-c1cccc(F)c1` has a melting point of 114 to 117 °C.
Work on `CCC1(C)SC(C)N=C1C` (stereo unspecified) yielded a melting point of 82 °C.
Molecule `CSC1=C(c2ccc(O)cc2)C(=O)c2ccc(O)cc21` has a melting point of 108 to 110 °C.
Molecule `O=c1[nH]c2c(cc1-c1noc(C3CC3)n1)CN(Cc1ccccc1)CC2` has a melting point of 187 to 190 °C.
For `Cc1ncn(-c2nccc3[nH]c(=O)ccc23)n1`, the melting point was greater than 300 °C.
Molecule `O=c1oc(-c2ccc(C#Cc3ccccc3)cc2)cc(O)c1SCCc1ccccc1` has a melting point of 181 to 182 °C.
With `CCn1ncc2c1ncc1c(=O)[nH]c3nc(S(C)=O)nn3c12` (stereo unspecified) the melting point was greater than 300 °C.
Molecule `NC(=O)CCC(=O)Nc1c(C(=O)c2ccccc2)[nH]c2cc(Cl)ccc12` has a melting point of 258 to 263 °C.
`CCNc1cccc(NC(=O)C(=O)OCC)c1C#N` showed a melting point of 99 to 102 °C.
For `COc1ccc2c(c1)c(OC(C)C)c(C(N)=O)n2C`, the melting point was 147 to 149 °C.
For `CC(C)(C)NC(=O)[C@@H]1C[C@H](Cl)CN1C(=O)[C@@H](O)[C@H](Cc1ccccc1)NC(=O)[C@H](CCS(C)(=O)=O)NC(=O)OCc1ccccc1`, the melting point was 99 to 103 °C.
Work on `Nc1ccc2oc(-c3ccccc3)c(O)c(=O)c2c1` yielded a melting point of 211 to 212 °C.
In the case of `CN(C/C=C\c1ccc(Cl)cc1)Cc1cccc2ccccc12`, the melting point was 41 to 42 °C.
`CCCCCCCCCCCCCCCCOCC(=O)O` showed a melting point of 64 to 66 °C.
Work on `CC[C@@H](c1ccccc1)N(Cc1ccc(C(=O)OC)cc1OC)S(=O)(=O)c1ccc(Cl)cc1` yielded a melting point of 108 to 110 °C.
Work on `CNC(=O)c1ccc(OCC(O)CNC(C)C)nc1` (stereo unspecified) yielded a melting point of 118 to 120 °C.
Molecule `Nc1ncnc2c1c(-c1cn[nH]c1)nn2Cc1oc2ccc(F)cc2c(=O)c1-c1ccccc1` has a melting point of 211 to 214 °C.
`COc1ccc2c(c1Br)C(=O)C(=O)N2` gave a melting point of 250 to 251 °C.
`CCOC(=NS(=O)(=O)c1ccccc1OC(F)F)OCC` showed a melting point of 80 to 81 °C.
`CC(C)Cc1ccc(COc2ccc(CC(=O)O)cc2Cl)cc1` showed a melting point of 97 to 99 °C.
Work on `COc1cc(C(=O)CSC)ccc1OC(C)=O` yielded a melting point of 70.4 °C.
In the case of `CONC(=O)Nc1ccc(-c2sc3c(c2CN(C)Cc2ccccc2)c(=O)n(-c2ccccc2)c(=O)n3Cc2c(F)cccc2F)cc1`, the melting point was 204 to 205 °C.
`CS(=O)(=O)C(=C1CN(C(c2ccccc2)c2ccccc2)C1)c1ccccc1Cl` showed a melting point of 204 °C.
Molecule `Nc1ccc(OCc2ccccn2)nn1` has a melting point of 114 to 115 °C.
In the case of `COC(=O)CCCN1CCC(NC(=O)c2ccccc2)CC1`, the melting point was 116 °C.
Molecule `C1=CC2=NCCN2C=C1` has a melting point of 178 to 180 °C.
Work on `COc1cc2[nH]c(C)c(C(=O)C(=O)N3CCC(C(=O)c4ccccc4)CC3)c2cc1OC` yielded a melting point of 188 to 190 °C.
`COC(=O)C1=C(O)c2ccccc2S(=O)(=O)N1` showed a melting point of 173 to 175 °C.
`CCOc1ccc(Oc2ccc(CNC(=O)c3sc(C)nc3C)cc2)cc1` showed a melting point of 99 to 101 °C.
`Nc1nc(N)nc(-c2ccc(NS(=O)(=O)c3cc(Cl)ccc3Cl)cc2)n1` gave a melting point of 230 to 233 °C.
`O=C1COC(Nc2ccccc2)=C1C(=O)Nc1ccccc1` gave a melting point of 182 to 184 °C.
With `CC(C)(CO)Cc1cccc(C(O)c2cccc(CC(C)(C)CO)c2)c1` the melting point was 98 to 99 °C.
For `N#Cc1ccc(Cn2cncn2)cc1-c1ccc(Cl)c(OS(N)(=O)=O)c1`, the melting point was 148 to 150 °C.
`COC(=O)c1ccc(C#CC(C)(O)c2ccc3c(c2)C(C)(C)CCC3(C)C)cc1O` (stereo unspecified) gave a melting point of 110 to 115 °C.
For `O=C(O)c1cc(Cn2cc(C3c4ccccc4C=Cc4ccccc43)c(=S)[nH]c2=O)ccc1O`, the melting point was greater than 240 °C.
`O=C(O)CC1CCCc2c1[nH]c1ccc(F)cc21` (stereo unspecified) showed a melting point of 124 to 126 °C.
In the case of `CC(C)C(=Nc1ccc([N+](=O)[O-])c(C(F)(F)F)c1)N(C)c1ccccc1`, the melting point was 52.5 to 54 °C.
Molecule `CSC1NC(=O)N(c2ccc(Cl)cc2)C(=O)N1N=C(C)C` (stereo unspecified) has a melting point of 142 to 144 °C.
`O=C(Nc1ccc(C(F)(F)F)cc1)Nc1cccc(S(=O)(=O)NCCN2CCOCC2)c1` gave a melting point of 62 to 65 °C.
In the case of `O=C(NC1CN2CCC1CC2)c1cccc2c1CCC2` (racemic), the melting point was 158 °C.
In the case of `Cc1ccc(C)c2c1CCC2=NNC(N)=Nc1c(Cl)cccc1Cl`, the melting point was greater than 275 °C.
Molecule `CC(=O)Cc1ccc2oc(C(=O)O)c(C)c2c1` has a melting point of 77 to 79 °C.
`CC(C)(CO)Cc1ccccc1` showed a melting point of 34 to 36 °C.
`CCCCN(C(=O)c1cc(C(C)(C)C)c(OC(=O)c2cc(C(C)(C)C)c(O)c(C(C)(C)C)c2)c(C(C)(C)C)c1)C1CC(C)(C)N(OC(C)=O)C(C)(C)C1` showed a melting point of 230 to 232 °C.
Work on `COC(=O)[C@@H]1[C@@H](C(=O)O)[C@H]2C=C[C@@H]1C2` yielded a melting point of 78 to 79 °C.
In the case of `CCOCCC(=O)OCC(=O)C1(O)CCC2C3CC(C)C4=CC(=O)C=CC4(C)C3C(O)CC21C` (stereo unspecified), the melting point was 186 °C.
In the case of `N#Cc1cc(-c2ccccn2)nn1-c1ccc(NC(=O)c2ccncc2F)cc1`, the melting point was 118 to 119 °C.
In the case of `CN(C)C(=S)n1c(SC(F)(F)C(F)F)nc(-c2ccccc2)c1-c1ccccc1`, the melting point was 133 to 134 °C.
In the case of `O=S1(=O)N=CN(C2CC2)c2ccccc21`, the melting point was 191 to 194 °C.
Molecule `C=C=CP1(=O)OCC(C)(C)CO1` has a melting point of 128 to 133 °C.
For `Cn1ncc2c1-c1ccc(Cl)cc1C(c1ccccc1F)=NC2`, the melting point was 128 to 130 °C.
In the case of `COc1ccc(CNc2ncnc3c(N4CCOCC4)nc(N4CCC(N(C)C)CC4)nc23)cc1`, the melting point was 124 to 126 °C.
`O=C1OC(c2ccc(Cl)cc2)C(Cn2cncn2)(c2ccc(Cl)cc2Cl)O1` (stereo unspecified) showed a melting point of 178 to 179 °C.
In the case of `CN(Nc1ccccc1COc1ccn(-c2ccc(Cl)cc2)n1)C(N)=O`, the melting point was 152 to 154 °C.
`Cc1nonc1-n1cc(C(=O)O)c(=O)c2cc(F)c(F)cc21` gave a melting point of 238 to 241 °C.
In the case of `O=C1NC(=O)C(CC#Cc2ccc(Cl)cc2)(Sc2ccc(Cl)cc2)S1` (stereo unspecified), the melting point was 144 to 146 °C.
With `O=C(O)c1coc2ccc(OCc3ccccc3)cc2c1=O` the melting point was 170 to 173 °C.
Molecule `O=C(COc1cccc2ccccc12)c1cc(O)c(O)c([N+](=O)[O-])c1` has a melting point of 198 to 199 °C.
Molecule `COC(=O)c1ccccc1-c1cc(-c2ccccn2)on1` has a melting point of 54 to 57 °C.
`CC(=O)Nc1ccc(Cn2cnc3c(Cl)ncnc32)cc1` showed a melting point of 240 to 242 °C.
In the case of `CCc1cccc(C)c1CNc1cc(Br)cc2c1nc(COC)n2C`, the melting point was 110 to 112 °C.
`COC(=O)c1ccccc1S(=O)(=O)NC(=O)n1nc(SC)n(C)c1=O` gave a melting point of 184 °C.
Work on `COc1cc2c(cc1OC)C(O)(c1ccccn1)CC(C)(C)CO2` (stereo unspecified) yielded a melting point of 90 °C.
`COc1cccc2c1Oc1cc(Cl)ccc1C2` showed a melting point of 106 to 108 °C.
For `CCOC(=O)CC(O)c1ccc2c(c1)CC(CNS(=O)(=O)c1ccc(Cl)cc1)C2` (stereo unspecified), the melting point was 108 to 111 °C.
For `COc1ccc2c(Nc3cccc(CCO)c3)c3ccccc3nc2c1`, the melting point was 186 to 188 °C.
`CC(C)(C)c1cc(SCCC(=O)NC23CC4CC(CC(C4)C2)C3)cc(C(C)(C)C)c1O` gave a melting point of 172 to 174 °C.
Work on `O=C(O)C1CCc2sc3ccccc3c2C1` (stereo unspecified) yielded a melting point of 202 to 203 °C.
Work on `CCCCc1nc2c(C(N)=O)cccc2n1Cc1ccc(-c2ccccc2-c2nnn[nH]2)cc1` yielded a melting point of 235 to 236 °C.
Molecule `c1csc(-c2cnc(COc3ccc(CCCCn4ccnc4)cc3)o2)c1` has a melting point of 136 to 138 °C.
With `CCCCCCC(O)c1ccc2cc(OC)ccc2c1` (stereo unspecified) the melting point was 71 to 74 °C.

From a melting point compilation (Tetko et al.; mined from patent text by program, amines drawn as free bases though some values may be those of a salt)
